From PubChem BioAssay AID248 (DTP/NCI, 2004)
Where “and” joins values, the source holds several entries; their conditions need not be identical. Identical values can stand only once. Inconclusive results and toxic doses are left out. Cut-off read from the data, not from the text of the source: active = T/C of 150% or more; inactive = T/C below 125%.

System: L1210 leukemia ip in BDF1 mice, survival T/C
Test: NCI In Vivo Anticancer Drug Screen. Data for tumor model L1210 Leukemia (intraperitoneal) in B6D2F1 (BDF1) mice
Details: endpoint: mean survival time, higher = longer survival
Method in brief: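 Tumor was transplanted into mice, which were then dosed with test compound or vehicle alone. Survival was recorded for each group, and the treated figure was expressed relative to the control figure.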

[1] = dose: 25.0 mg/kg/injection, schedule: Q04DX003 (ip), vehicle: saline
[2] = dose: 100.0 mg/kg/injection, schedule: Q01DX009 (ip), vehicle: Klucel (hydroxypropylcellulose) (HPC)
[3] = dose: 200.0 mg/kg/injection, schedule: Q01DX009 (ip), vehicle: Klucel (hydroxypropylcellulose) (HPC)
[4] = dose: 400.0 mg/kg/injection, schedule: Q01DX009 (ip), vehicle: Klucel (hydroxypropylcellulose) (HPC)
[5] = dose: 100.0 mg/kg/injection, schedule: Q04DX003 (ip), vehicle: Klucel (hydroxypropylcellulose) (HPC)
[6] = dose: 200.0 mg/kg/injection, schedule: Q04DX003 (ip), vehicle: Klucel (hydroxypropylcellulose) (HPC)

Measured: T/C

CCCCOC(=O)/C=C/C(=O)[O][Sn]([CH2]CCC)([CH2]CCC)[O]C(=O)/C=C/C(=O)OCCCC
inactive: dose: 12.5 mg/kg/injection, schedule: Q01DX009 (sc), vehicle: olive oil, sesame oil, peanut oil 98 % of control | dose: 25.0 mg/kg/injection, schedule: Q01DX009 (sc), vehicle: olive oil, sesame oil, peanut oil 108 % of control | dose: 25.0 mg/kg/injection, schedule: Q04DX002 (sc), vehicle: olive oil, sesame oil, peanut oil 97 % of control | dose: 50.0 mg/kg/injection, schedule: Q01DX009 (sc), vehicle: olive oil, sesame oil, peanut oil 95 % of control | dose: 50.0 mg/kg/injection, schedule: Q04DX002 (sc), vehicle: olive oil, sesame oil, peanut oil 94 % of control | dose: 100.0 mg/kg/injection, schedule: Q04DX002 (sc), vehicle: olive oil, sesame oil, peanut oil 96 % of control and 106 % of control | dose: 200.0 mg/kg/injection, schedule: Q04DX002 (sc), vehicle: olive oil, sesame oil, peanut oil 89 % of control

CC(C)(C)NC(=O)CCC1CC(=O)NC12CCCCC2 (stereo not drawn)
inactive: dose: 75.0 mg/kg/injection, schedule: Q01DX009 (ip), vehicle: Klucel (hydroxypropylcellulose) (HPC) 90 % of control | dose: 150.0 mg/kg/injection, schedule: Q01DX009 (ip), vehicle: Klucel (hydroxypropylcellulose) (HPC) 91 % of control | dose: 300.0 mg/kg/injection, schedule: Q01DX009 (ip), vehicle: Klucel (hydroxypropylcellulose) (HPC) 96 % of control

Cc1ccc(C2NC(=O)N3C(c4ccc(C)cc4)NC(=O)N23)cc1 (stereo not drawn)
inactive: dose: 100.0 mg/kg/injection, schedule: Q01DX009 (ip), vehicle: gum acacia 99 % of control | dose: 100.0 mg/kg/injection, schedule: Q04DX003 (ip), vehicle: gum acacia 99 % of control | dose: 200.0 mg/kg/injection, schedule: Q01DX009 (ip), vehicle: gum acacia 102 % of control | dose: 200.0 mg/kg/injection, schedule: Q04DX003 (ip), vehicle: gum acacia 87 % of control | dose: 400.0 mg/kg/injection, schedule: Q01DX009 (ip), vehicle: gum acacia 96 % of control | dose: 400.0 mg/kg/injection, schedule: Q04DX003 (ip), vehicle: gum acacia 92 % of control

COP(=O)(OC)C(OC(=O)C(C)(C)Br)=C(C)C
inactive: dose: 100.0 mg/kg/injection, schedule: Q04DX003 (ip), vehicle: saline with Tween-80 102 % of control | dose: 200.0 mg/kg/injection, schedule: Q04DX003 (ip), vehicle: saline with Tween-80 106 % of control | dose: 400.0 mg/kg/injection, schedule: Q04DX003 (ip), vehicle: saline with Tween-80 113 % of control

OCCNCCN1CCN(CCCN2c3ccccc3Sc3ccc(C(F)(F)F)cc32)CC1
inactive: dose: 6.25 mg/kg/injection, schedule: Q01DX009 (ip), vehicle: saline 111 % of control | dose: 6.25 mg/kg/injection, schedule: Q04DX003 (ip), vehicle: saline 104 % of control | dose: 12.5 mg/kg/injection, schedule: Q01DX009 (ip), vehicle: saline 105 % of control | dose: 12.5 mg/kg/injection, schedule: Q04DX003 (ip), vehicle: saline 101 % of control | dose: 25.0 mg/kg/injection, schedule: Q01DX009 (ip), vehicle: saline 88 % of control | [1] 95 % of control

CC(=O)N(C)c1ccc(NC(=O)Nc2cc(C(F)(F)F)ccc2Cl)cc1
inactive: [2] 96 % of control | [3] 94 % of control | [4] 94 % of control

CC(=O)Nc1ccc(S(=O)(=O)c2ccc(N)cc2)cc1
inactive: dose: 12.5 mg/kg/injection, schedule: Q04DX002 (ip), vehicle: saline with Tween-80 105 % of control | dose: 25.0 mg/kg/injection, schedule: Q04DX002 (ip), vehicle: saline with Tween-80 109 % of control and 90 % of control | dose: 50.0 mg/kg/injection, schedule: Q04DX002 (ip), vehicle: saline with Tween-80 97 % of control | dose: 100.0 mg/kg/injection, schedule: Q04DX002 (ip), vehicle: saline with Tween-80 97 % of control and 102 % of control | dose: 200.0 mg/kg/injection, schedule: Q04DX002 (ip), vehicle: saline with Tween-80 109 % of control

O=C(/C=C/c1ccccn1)c1ccccc1O
inactive: dose: 12.5 mg/kg/injection, schedule: Q04DX003 (ip), vehicle: saline with Tween-80 92 % of control | dose: 25.0 mg/kg/injection, schedule: Q04DX003 (ip), vehicle: saline with Tween-80 100 % of control | dose: 50.0 mg/kg/injection, schedule: Q04DX003 (ip), vehicle: saline with Tween-80 92 % of control

COP(=O)(NC12CC3CC(CC(C3)C1)C2)OC
inactive: [2] 103 % of control | [5] 97 % of control | [3] 100 % of control | [6] 95 % of control | [4] 101 % of control | dose: 400.0 mg/kg/injection, schedule: Q04DX003 (ip), vehicle: Klucel (hydroxypropylcellulose) (HPC) 95 % of control

CNC(=S)N/N=C/c1ccc(OC)c(OC)c1OC
inactive: [2] 102 % of control | [3] 120 % of control | [4] 98 % of control

COc1ccc2c(C(=O)N(CCCl)CCCl)cc3cc(OC)c(OC)cc3c2c1
inactive: [1] 116 % of control | dose: 50.0 mg/kg/injection, schedule: Q04DX003 (ip), vehicle: saline 102 % of control

C=CCCc1c(N)nc(N)[nH]c1=O
inactive: dose: 25.0 mg/kg/injection, schedule: Q01DX001 (ip), vehicle: Klucel (hydroxypropylcellulose) (HPC) 100 % of control | dose: 50.0 mg/kg/injection, schedule: Q01DX001 (ip), vehicle: Klucel (hydroxypropylcellulose) (HPC) 100 % of control | dose: 100.0 mg/kg/injection, schedule: Q01DX001 (ip), vehicle: Klucel (hydroxypropylcellulose) (HPC) 96 % of control

CC(C)CN(CC(C)C)Cn1nnc2ccccc21
inactive: dose: 75.0 mg/kg/injection, schedule: Q01DX001 (ip), vehicle: carboxymethylcellulose (CMC) 100 % of control | dose: 150.0 mg/kg/injection, schedule: Q01DX001 (ip), vehicle: carboxymethylcellulose (CMC) 94 % of control | dose: 300.0 mg/kg/injection, schedule: Q01DX001 (ip), vehicle: carboxymethylcellulose (CMC) 108 % of control

NC(=O)c1ccccc1C(=O)c1ccccc1
inactive: dose: 100.0 mg/kg/injection, schedule: Q01DX001 (ip), vehicle: saline 102 % of control | dose: 200.0 mg/kg/injection, schedule: Q01DX001 (ip), vehicle: saline 104 % of control

C/C=C/c1cc2c(c(=O)o1)C(=O)[C@@H](O)[C@H](C)O2
inactive: dose: 100.0 mg/kg/injection, schedule: Q01DX001 (ip), vehicle: carboxymethylcellulose (CMC) 92 % of control | dose: 200.0 mg/kg/injection, schedule: Q01DX001 (ip), vehicle: carboxymethylcellulose (CMC) 103 % of control | dose: 400.0 mg/kg/injection, schedule: Q01DX001 (ip), vehicle: carboxymethylcellulose (CMC) 94 % of control

CCCCCCC/C(=N\N=C(N)N)c1ccc(O)cc1
inactive: dose: 15.0 mg/kg/injection, schedule: Q01DX Z (ip), vehicle: carboxymethylcellulose (CMC) 93 % of control | dose: 15.0 mg/kg/injection, schedule: Q01DX Z (oral), vehicle: carboxymethylcellulose (CMC) 117 % of control | dose: 30.0 mg/kg/injection, schedule: Q01DX Z (ip), vehicle: carboxymethylcellulose (CMC) 87 % of control | dose: 30.0 mg/kg/injection, schedule: Q01DX Z (oral), vehicle: carboxymethylcellulose (CMC) 106 % of control | dose: 60.0 mg/kg/injection, schedule: Q01DX Z (oral), vehicle: carboxymethylcellulose (CMC) 97 % of control and 103 % of control | dose: 120.0 mg/kg/injection, schedule: Q01DX Z (oral), vehicle: carboxymethylcellulose (CMC) 112 % of control and 90 % of control | dose: 240.0 mg/kg/injection, schedule: Q01DX Z (oral), vehicle: carboxymethylcellulose (CMC) 94 % of control and 95 % of control | dose: 480.0 mg/kg/injection, schedule: Q01DX Z (oral), vehicle: carboxymethylcellulose (CMC) 88 % of control and 90 % of control

Cc1ccc(NC(=S)Nc2ccccc2)cc1
inactive: [5] 97 % of control | [6] 107 % of control
